This passage reports IC50 results from patent US11878970B2, “Allosteric chromenone inhibitors of phosphoinositide 3-kinase (PI3K) for the treatment of disease” (Petra Pharma Corporation, priority 2021, dated 2024).

Assay [1] deals with T1, PI3K-α (PIK3CA) wild-type (WT), p110α/p85α complex (Homo sapiens, UniProt P42336).
T1 construct: Recombinant, catalytically active human full length PIK3KA Wild-type and H1047R mutant; 6×His (N); purchased EMD Millipore Sigma 14-602M
Put plainly: PI3K-alpha kinase (PIK3CA) biochemical activity, ADP-Glo, wild-type. To be noted: Soy PI lipid substrate. Put shortly:
(§1)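 ADP formation measured by ADP-Glo luminescence after reaction at 27 °C to about 10% ATP turnover, using 20 uM ATP, 50 uM PIP2diC8 or soy PI lipid, HEPES pH 7.4 with MgCl2. Enzyme (1-5 nM WT or H1047R p110α/p85α) and compound preincubated 1 h first; 10-point 1:3 curves fitted four-parameter for IC50.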

For assay [2], the target named is T2, PI3K-α (PIK3CA) H1047R mutant, p110α/p85α complex (Homo sapiens, UniProt P42336, H1047R).
T2 construct: Recombinant, catalytically active human full length PIK3KA Wild-type and H1047R mutant; 6×His (N); purchased EMD Millipore Sigma 14-792M
T2 sequence (P42336 whole entry H1047R): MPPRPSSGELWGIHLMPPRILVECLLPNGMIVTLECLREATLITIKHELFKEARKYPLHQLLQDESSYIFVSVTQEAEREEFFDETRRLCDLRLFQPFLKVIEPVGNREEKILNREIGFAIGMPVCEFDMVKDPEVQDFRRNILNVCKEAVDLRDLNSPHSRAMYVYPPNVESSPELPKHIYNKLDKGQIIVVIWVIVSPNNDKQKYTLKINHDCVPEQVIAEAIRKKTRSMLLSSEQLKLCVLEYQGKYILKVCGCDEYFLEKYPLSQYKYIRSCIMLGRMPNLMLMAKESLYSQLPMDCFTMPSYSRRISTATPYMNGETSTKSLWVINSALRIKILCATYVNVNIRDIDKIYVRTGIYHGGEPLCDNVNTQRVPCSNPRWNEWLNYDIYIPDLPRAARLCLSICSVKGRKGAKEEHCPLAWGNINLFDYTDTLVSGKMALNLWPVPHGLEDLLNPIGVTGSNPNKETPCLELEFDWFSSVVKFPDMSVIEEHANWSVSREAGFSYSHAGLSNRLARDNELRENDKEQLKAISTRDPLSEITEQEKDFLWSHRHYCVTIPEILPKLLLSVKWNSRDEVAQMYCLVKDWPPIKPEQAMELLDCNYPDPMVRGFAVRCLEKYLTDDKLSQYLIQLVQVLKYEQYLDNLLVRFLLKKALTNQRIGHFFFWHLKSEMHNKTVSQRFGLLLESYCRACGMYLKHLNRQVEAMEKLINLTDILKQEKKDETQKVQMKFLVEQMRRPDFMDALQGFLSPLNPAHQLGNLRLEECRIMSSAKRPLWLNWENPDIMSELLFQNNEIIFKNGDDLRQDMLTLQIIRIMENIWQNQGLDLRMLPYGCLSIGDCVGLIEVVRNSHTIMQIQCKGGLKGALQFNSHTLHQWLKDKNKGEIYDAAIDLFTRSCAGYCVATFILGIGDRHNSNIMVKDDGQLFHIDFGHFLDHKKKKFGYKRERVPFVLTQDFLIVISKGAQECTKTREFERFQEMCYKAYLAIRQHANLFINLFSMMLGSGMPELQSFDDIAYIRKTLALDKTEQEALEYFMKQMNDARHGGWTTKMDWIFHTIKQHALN
T2 sequence (P27986 whole entry partner): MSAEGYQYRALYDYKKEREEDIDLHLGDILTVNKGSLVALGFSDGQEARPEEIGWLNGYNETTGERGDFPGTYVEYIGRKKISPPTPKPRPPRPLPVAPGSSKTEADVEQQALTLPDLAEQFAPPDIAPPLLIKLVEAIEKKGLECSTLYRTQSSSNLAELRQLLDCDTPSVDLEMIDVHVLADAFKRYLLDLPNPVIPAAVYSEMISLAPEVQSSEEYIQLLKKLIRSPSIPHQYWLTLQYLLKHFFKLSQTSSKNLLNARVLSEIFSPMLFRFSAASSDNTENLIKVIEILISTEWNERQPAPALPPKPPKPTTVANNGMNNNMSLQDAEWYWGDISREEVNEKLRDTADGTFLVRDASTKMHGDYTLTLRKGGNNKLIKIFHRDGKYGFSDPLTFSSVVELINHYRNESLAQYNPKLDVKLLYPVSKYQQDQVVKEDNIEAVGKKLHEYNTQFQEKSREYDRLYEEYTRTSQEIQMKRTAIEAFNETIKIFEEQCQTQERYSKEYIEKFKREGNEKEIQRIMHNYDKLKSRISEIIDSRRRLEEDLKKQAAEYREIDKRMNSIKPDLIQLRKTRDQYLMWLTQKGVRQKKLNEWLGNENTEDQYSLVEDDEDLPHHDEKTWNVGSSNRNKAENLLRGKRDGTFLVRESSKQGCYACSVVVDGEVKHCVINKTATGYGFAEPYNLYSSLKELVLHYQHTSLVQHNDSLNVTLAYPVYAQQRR
Put plainly: PI3K-alpha kinase (PIK3CA) biochemical activity, ADP-Glo, H1047R mutant. The note with it: Soy PI lipid substrate. Put shortly:
as §1
In general terms: In ADP-Glo the light output rises with the ADP produced.

Each structure is given as a SMILES string.

Usually IC50 stands for the concentration at which inhibition is half-maximal. `Cc1cc(C(C)Nc2ccccc2C(=O)O)c2oc(-c3ccc4nc(C)cn4c3)cc(=O)c2c1` (single isomer, unassigned) [Example 17, 2-[1-[6-Methyl-2-(2-methylimidazo[1,2-a]pyridin-6-yl)-4-oxo-chromen-8-yl]ethylamino]benzoic acid]: the IC50 in assay [1] is 1000 to 5000 nM; in assay [2], under 500 nM.

As to `Cc1cc(C(C)Nc2ccccc2C(=O)O)c2oc(-c3ncc4cc(C)[nH]c4n3)cc(=O)c2c1` (single isomer, unassigned) [Example 72, 2-[1-[6-Methyl-2-(6-methyl-7H-pyrrolo[2,3-d]pyrimidin-2-yl)-4-oxo-chromen-8-yl]ethylamino]benzoic acid], the IC50 in assay [1] is 500 to 1000 nM; in assay [2], under 500 nM.

For `Cc1cc(C(C)Nc2ccccc2C(=O)O)c2oc(-c3ccc4nc(C)cn4c3)c(C#N)c(=O)c2c1` (single isomer, unassigned) [Example 118, 2-[1-[3-Cyano-6-methyl-2-(2-methylimidazo[1,2-a]pyridin-6-yl)-4-oxo-chromen-8-yl]ethylamino]benzoic acid], the IC50 is 1000 to 5000 nM in assay [1] and under 500 nM in assay [2].

With `Cc1cc(C(C)Nc2ccccc2C(=O)O)c2oc(-c3c[nH]c4ccccc34)c(C)c(=O)c2c1` (single isomer, unassigned) [Example 154, 2-[1-[2-(1H-Indol-3-yl)-3,6-dimethyl-4-oxo-chromen-8-yl]ethylamino]benzoic acid], the IC50 in assay [1] was 1000 to 5000 nM; in assay [2], under 500 nM.

`Cc1c(-c2ccc3nn(C)cc3c2)oc2c(C(C)Nc3ccccc3C(=O)O)cc(F)cc2c1=O` (single isomer, unassigned) [Example 148, 2-[1-[6-Fluoro-3-methyl-2-(2-methylindazol-5-yl)-4-oxo-chromen-8-yl]ethylamino]benzoic acid]: the results for the IC50 in assay [1] and in assay [2] were 500 to 1000 nM and under 500 nM, respectively.

For `Cc1nc2ccc(-c3cc(=O)c4cc(C(F)(F)F)cc(C(C)Nc5ccc(Cl)nc5C(=O)O)c4o3)cc2s1` (single isomer, unassigned) [Example 167, 6-Chloro-3-[1-[2-(2-methyl-1,3-benzothiazol-6-yl)-4-oxo-6-(trifluoromethyl)chromen-8-yl]ethylamino]pyridine-2-carboxylic acid], the IC50 in assay [1] was 1000 to 5000 nM; in assay [2], under 500 nM.

`Cc1cc(C(C)Nc2ccccc2C(=O)O)c2oc(-c3ccc4nn(C)cc4n3)c(C)c(=O)c2c1` (single isomer, unassigned) [Example 130, 2-[1-[3,6-Dimethyl-2-(2-methylpyrazolo[4,3-b]pyridin-5-yl)-4-oxo-chromen-8-yl]ethylamino]benzoic acid]: the IC50 is 500 to 1000 nM in assay [1] and under 500 nM in assay [2].

In the case of `Cc1cc(C(C)Nc2ccccc2C(=O)O)c2oc(-c3ccc4c(c3)CN(C)C4=O)cc(=O)c2c1` (centres unmarked) [Example 30, 2-[1-[6-Methyl-2-(2-methyl-1-oxo-isoindolin-5-yl)-4-oxo-chromen-8-yl]ethylamino]benzoic acid], the IC50 in assay [1] was 1000 to 5000 nM; in assay [2], under 500 nM.

With `Cc1cc(C(C)Nc2ccccc2C(=O)O)c2oc(-c3ccn4ccnc4c3)cc(=O)c2c1` (single isomer, unassigned) [Example 80, 2-[1-(2-Imidazo[1,2-a]pyridin-7-yl-6-methyl-4-oxo-chromen-8-yl)ethylamino]benzoic acid], the IC50 is 1000 to 5000 nM in assay [1] and under 500 nM in assay [2].

On to `Cc1cc(C(C)Nc2ccccc2C(=O)O)c2oc(-c3ccc4ccn(C)c4n3)cc(=O)c2c1` (single isomer, unassigned) [Example 159, 2-[1-[6-Methyl-2-(1-methylpyrrolo[2,3-b]pyridin-6-yl)-4-oxo-chromen-8-yl]ethylamino]benzoic acid], for which the IC50 in assay [1] was 1000 to 5000 nM; in assay [2], under 500 nM.
